Read-outs that look alike come from different tables or passages of the source. Where a SMILES comes first, the peptide text is derived from it. [ ]: non-standard residue; d: D form. dNMeI = CC[C@@H](C)[C@@H](NC)C(=O)O; NMeF = CN[C@@H](Cc1ccccc1)C(=O)O; dNMeF = CN[C@H](Cc1ccccc1)C(=O)O; NMeL = CN[C@@H](CC(C)C)C(=O)O; dNMeL = CN[C@H](CC(C)C)C(=O)O; dNMeV = CN[C@@H](C(=O)O)C(C)C; NMeA = CN[C@@H](C)C(=O)O; dNMeA = CN[C@H](C)C(=O)O
Key:
[1] = Parallel artificial membrane permeability assay (PAMPA); conditions: for PAMPA_R1 / PAMPA_R3: PAMPA Papp; for PAMPA_R1: replicate 1; for PAMPA_R3: replicate 3; for Papp: PAMPA
[2] = system: Caco-2 cells; test: Caco-2 permeability assay (apical to basolateral); format: in vitro ADME, human; conditions: Caco-2
Summary of the method: (§1)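 Apical-to-basolateral flux was determined by LC-MS of both compartments after 90 min at 37°C on an orbital shaker, with 50 μM peptide on the apical side and HBSS below. Monolayers were grown for 6 days in an accelerated Caco-2 Transwell format and verified by TEER before and after the run.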

[3] = Caco-2 permeability assay (apical to basolateral); format: in vitro ADME, human; conditions: for Papp A→B: Caco-2, Caco_Papp_Average
Summary of the method: as §1

[4] = PAMPA
[5] = in vitro; conditions: PAMPA, PAMPA_Papp_Avg
[6] = PAMPA, apparent permeability (Papp) in PAMPA
[7] = BQL = no significant peak detected for the peptide in the acceptor wells
[8] = BQL: No significant peak detected for the peptide in the acceptor wells
[9] = average of 3 replicates, BQL: No significant peak detected for the peptide in the acceptor wells

Row | Structure (SMILES) | Caco_R1 [2] | Caco_R3 [2] | Papp A→B [3] [×10⁻⁶ cm/s] | PAMPA_R1 [4] | PAMPA_R3 [4] | Papp [5] [×10⁻⁶ cm/s] | PAMPA_R1 [1, 8] | PAMPA_R3 [1, 8] | other results
1 | CC[C@@H](C)[C@H]1NC(=O)[C@@H]2CCCN2C(=O)[C@@H](Cc2ccccc2)N(C)C(=O)[C@@H](CC(C)C)N(C)C(=O)[C@@H](C(C)C)NC(=O)[C@@H](CC(C)C)N(C)C(=O)[C@H](Cc2ccccc2)N(C)C(=O)[C@H](C(C)C)NC(=O)[C@H]2CCCN2C1=O [Design D9.7, VAL *PHE *DLEU DVAL *DLEU *DPHE PRO DILE DPRO] (cyclo([NMeF][dNMeL][dV][dNMeL][dNMeF]P[dI][dP]V)) | – | – | – | – | – | – | – | – | PAMPA_R1 [1, 7]: BQL; PAMPA_R3 [1, 7]: BQL; PAMPA_Papp_Avg ([1]; average of replicates R1-R3, BQL = no significant peak detected for the peptide in the acceptor wells): BQL
2 | CC[C@@H](C)[C@H]1NC(=O)[C@@H]2CCCN2C(=O)[C@@H]([C@H](C)CC)NC(=O)[C@@H](C)N(C)C(=O)[C@H](CC(C)C)NC(=O)[C@@H](Cc2ccccc2)NC(=O)[C@H](CC(C)C)N(C)C(=O)[C@H]2CCCN2C(=O)[C@@H](CC(C)C)NC(=O)[C@H](CC(C)C)NC(=O)[C@H]2CCCN2C1=O [Design D11.1, DILE DPRO LEU DLEU DPRO *LEU DPHE LEU *DALA DILE PRO] (cyclo(L[dL][dP][NMeL][dF]L[dNMeA][dI]P[dI][dP])) | 2.39 | 3.24 | 2.77 | 3.55E-06 | 3.63E-06 | 3.48 | – | – | –
3 | CC[C@@H](C)[C@H]1NC(=O)[C@H]([C@@H](C)CC)NC(=O)[C@H](Cc2ccccc2)N(C)C(=O)[C@H]2CCCN2C(=O)[C@@H]([C@H](C)CC)NC(=O)[C@@H]([C@H](C)CC)N(C)C(=O)[C@H](CC(C)C)NC(=O)[C@H]2CCCN2C(=O)[C@@H]2CCCN2C(=O)[C@H](C(C)C)NC(=O)[C@H]2CCCN2C1=O [Design D11.4, VAL PRO DPRO LEU *DILE DILE DPRO *PHE ILE DILE DPRO] (cyclo(I[dI][dP]VP[dP]L[dNMeI][dI][dP][NMeF])) | 3.83 | 6.55 | 4.99 | 1.64E-06 | 6.73E-07 | 1.47 | – | – | –
4 | CC[C@@H](C)[C@H]1NC(=O)[C@@H](CC(C)C)NC(=O)[C@H](C(C)C)NC(=O)[C@@H](CC(C)C)N(C)C(=O)[C@@H]2CCCN2C(=O)[C@H](C)NC(=O)[C@H](CC(C)C)N(C)C(=O)[C@H]2CCCN2C(=O)[C@H](C)N(C)C(=O)[C@@H](CC(C)C)N(C)C(=O)[C@@H]2CCCN2C1=O [Design D11.5, ALA PRO *DLEU VAL DLEU DILE PRO *DLEU *ALA DPRO *LEU] (cyclo(AP[dNMeL]V[dL][dI]P[dNMeL][NMeA][dP][NMeL])) | 2.93 | 3.89 | 3.84 | 2.56E-06 | 3.12E-06 | 2.81 | – | – | –
5 | CC[C@@H](C)[C@H]1NC(=O)[C@H](C)N(C)C(=O)[C@H]([C@@H](C)CC)NC(=O)[C@H]2CCCN2C(=O)[C@H](CC(C)C)N(C)C(=O)[C@@H](C(C)C)NC(=O)[C@H](C)N(C)C(=O)[C@H]([C@@H](C)CC)NC(=O)[C@@H](CC(C)C)NC(=O)[C@@H]2CCCN2C(=O)[C@H]2CCCN2C1=O [Design D11.10, DPRO ILE *ALA DILE DPRO PRO DLEU ILE *ALA DVAL *LEU] (cyclo([dL]I[NMeA][dV][NMeL][dP]I[NMeA][dI][dP]P)) | 4.35 | 4.8 | 4.54 | 2.19E-06 | 3.23E-06 | 2.45 | – | – | –
6 | CC[C@H](C)[C@@H]1NC(=O)[C@@H](CC(C)C)N(C)C(=O)[C@H](CC(C)C)N(C)C(=O)[C@@H](Cc2ccccc2)NC(=O)[C@@H](CC(C)C)N(C)C(=O)[C@H]2CCCN2C(=O)[C@H]2CCCN2C(=O)[C@@H]2CCCN2C(=O)[C@@H](C(C)C)NC(=O)[C@@H]2CCCN2C(=O)[C@H](C)NC1=O [Design D11.11, PRO DPRO DPRO *DLEU DPHE *LEU *DLEU ILE ALA PRO DVAL] (cyclo(AP[dV]P[dP][dP][dNMeL][dF][NMeL][dNMeL]I)) | 2.88 | 5.78 | 4.92 | 1.97E-06 | 2.38E-06 | 2.26 | – | – | –
7 | CC[C@H](C)[C@@H]1NC(=O)[C@@H]2CCCN2C(=O)[C@H]2CCCN2C(=O)[C@@H](CC(C)C)NC(=O)[C@@H](CC(C)C)N(C)C(=O)[C@@H](C(C)C)NC(=O)[C@H](C(C)C)NC(=O)[C@H]2CCCN2C(=O)[C@@H]2CCCN2C(=O)[C@H]([C@@H](C)CC)NC(=O)[C@H](C)N(C)C1=O [Design D11.13, PRO DPRO VAL DVAL *DLEU DLEU DPRO PRO ILE *ALA ILE] (cyclo(I[NMeA]IP[dP]V[dV][dNMeL][dL][dP]P)) | 4.34 | 4.75 | 4.5 | 9.91E-07 | 1.30E-06 | 1.07 | – | – | –
8 | CC(C)C[C@@H]1NC(=O)[C@H](CC(C)C)N(C)C(=O)[C@H]2CCCN2C(=O)[C@H]2CCCN2C(=O)[C@H](CC(C)C)NC(=O)[C@@H](CC(C)C)N(C)C(=O)[C@@H](C)NC(=O)[C@@H](CC(C)C)N(C)C(=O)[C@H]2CCCN2C(=O)[C@@H](CC(C)C)NC(=O)[C@@H](C)N(C)C1=O [Design D11.15, LEU DPRO DPRO *LEU LEU *DALA DLEU DPRO *DLEU DALA *DLEU] (cyclo(L[dNMeA][dL][dP][dNMeL][dA][dNMeL]L[dP][dP][NMeL])) | – | – | – | – | – | – | 9.49E-07 | 1.56E-06 | Papp [1]: 1.29 ×10⁻⁶ cm/s
9 | CC[C@@H](C)[C@H]1NC(=O)[C@H]2CCCN2C(=O)[C@H]([C@@H](C)CC)NC(=O)[C@@H]2CCCN2C(=O)[C@H]2CCCN2C(=O)[C@@H](CC(C)C)NC(=O)[C@H](CC(C)C)NC(=O)[C@H](C(C)C)NC(=O)[C@H](CC(C)C)NC(=O)[C@H](C)NC(=O)[C@H](C)NC(=O)[C@@H]2CCCN2C1=O [Design D12.1, PRO ILE DPRO DILE PRO ALA ALA LEU VAL LEU DLEU DPRO] (cyclo(I[dP][dI]PAALVL[dL][dP]P)) | – | – | – | – | – | – | BQL | BQL | PAMPA_Papp_Avg [1, 9]: BQL
10 | CC[C@@H](C)[C@H]1NC(=O)[C@@H](CC(C)C)N(C)C(=O)[C@@H]2CCCN2C(=O)[C@H](C(C)C)NC(=O)[C@@H](C)N(C)C(=O)[C@@H]2CCCN2C(=O)[C@@H](CC(C)C)NC(=O)[C@@H](C(C)C)N(C)C(=O)[C@@H]2CCCN2C(=O)[C@H](C)NC(=O)[C@H](C(C)C)NC(=O)[C@@H]2CCCN2C1=O [Design D12.5, VAL PRO *DLEU DILE PRO VAL ALA PRO *DVAL DLEU PRO *DALA] (cyclo(AP[dNMeV][dL]P[dNMeA]VP[dNMeL][dI]PV)) | – | – | – | – | – | – | 1.24E-07 | 1.52E-07 | Papp [1]: 0.1 ×10⁻⁶ cm/s
11 | CC[C@H](C)[C@@H]1NC(=O)[C@H](Cc2ccccc2)N(C)C(=O)[C@H]2CCCN2C(=O)[C@H]([C@@H](C)CC)NC(=O)[C@@H](C)N(C)C(=O)[C@@H](C)NC(=O)[C@@H]2CCCN2C(=O)[C@H]2CCCN2C(=O)[C@H](CC(C)C)NC(=O)[C@@H](CC(C)C)NC(=O)[C@H](CC(C)C)NC(=O)[C@H]2CCCN2C1=O [Design D12.6, DPRO *PHE ILE DPRO LEU DLEU LEU DPRO PRO DALA *DALA ILE] (cyclo([dA][dNMeA]I[dP][NMeF]I[dP]L[dL]L[dP]P)) | 2.06 | 4.18 | 2.84 | 2.43E-06 | 1.22E-06 | 1.47 | – | – | Papp at 90 min, 50 µM ([3]; human, Caco-2): 2.84 ×10⁻⁶ cm/s; Papp [6]: 1.47 ×10⁻⁶ cm/s
12 | CC[C@@H](C)[C@H]1NC(=O)[C@@H](C)N(C)C(=O)[C@H](CC(C)C)NC(=O)[C@@H](CC(C)C)NC(=O)[C@H]2CCCN2C(=O)[C@H](CC(C)C)N(C)C(=O)[C@@H](C(C)C)NC(=O)[C@@H](CC(C)C)N(C)C(=O)[C@H](C(C)C)NC(=O)[C@@H](C(C)C)NC(=O)[C@@H]2CCCN2C(=O)[C@H]2CCCN2C1=O [Design D12.10, *LEU DPRO DLEU LEU *DALA DILE DPRO PRO DVAL VAL *DLEU DVAL] (cyclo([dV]V[dNMeL][dV][NMeL][dP][dL]L[dNMeA][dI][dP]P)) | – | – | – | – | – | – | BQL | BQL | PAMPA_Papp_Avg [1, 9]: BQL

From article PMC9490236, “Accurate de novo design of membrane-traversing macrocycles” (Cell, 2022)
